Active and inactive are the calls of the source. The rule behind the calls is not given here.
Legend:
[1] = test system: Transcriptional enhancer factor TEF-3 (Homo sapiens), Q15561 [C335A]; assay: Binding affinity to TEAD4-YBD C335A mutant (unknown origin) assessed as change in melting temperature by SYPRO-dye based thermal shift assay
[2] = CoA reactivity in PBS assessed as CoA adduct formation at 1 mM after 8 hrs by UPLC-MS analysis
[3] = target: Transcriptional enhancer factor TEF-3 (Homo sapiens, UniProt Q15561); assay: Binding affinity to TEAD4 in human HCT116 cells assessed as increase in soluble form of TEAD4 level at 50 uM preincubated for 4 hrs followed by heating at 51.6 to 64.4 degC for 3 mins by immunoblot-based […]; format: cell-based
[4] = target: Transcription initiation factor TFIID subunit 1-like (Homo sapiens) (UniProt Q8IZX4); assay: Inhibition of recombinant human TAF1L (1428 to end residues) at 10 uM using RRRFRPASPLRGPPK as substrate measured after 120 mins in presence of [gamma33P]ATP by scintillation counting method relative to control
[5] = target: Tyrosine-protein kinase SYK (Homo sapiens) (UniProt P43405); assay: Inhibition of full length recombinant human Syk at 10 uM using poly(Glu, Tyr) 4:1 as substrate after 40 mins in presence of [gamma33P]ATP by scintillation counting method relative to control
[6] = target: Insulin receptor (Homo sapiens) (UniProt P06213); assay: Inhibition of recombinant human IR activated (1005 to 1310 residues) at 10 uM using KKSRGDYMTMQIG as substrate after 40 mins in presence of [gamma33P]ATP by scintillation counting method relative to control
[7] = target: Rhodopsin kinase GRK1 (Homo sapiens) (UniProt Q15835); assay: Inhibition of full length recombinant human GRK1 at 10 uM using KKKKERLLDDRHDSGLDSMKDEE as substrate after 40 mins in presence of [gamma33P]ATP by scintillation counting method relative to control
[8] = target: Receptor-type tyrosine-protein kinase FLT3 (Homo sapiens) (UniProt P36888); assay: Inhibition of recombinant human Flt3 (564 to end residues) at 10 uM using EAIYAAPFAKKK as substrate after 40 mins in presence of [gamma33P]ATP by scintillation counting method relative to control
[9] = target: Protein kinase C iota type (Homo sapiens) (UniProt P41743); assay: Inhibition of full-length recombinant human PKCiota at 10 uM using ERMRPRKRQGSVRRRV as substrate after 40 mins by in presence of [gamma33P]ATP by scintillation counting method relative to control
[10] = target: Serine/threonine-protein kinase pim-2 (Homo sapiens) (UniProt Q9P1W9); assay: Inhibition of recombinant human PIM2 (2 to end residues) at 10 uM using RSRHSSYPAGT as substrate measured after 40 mins in presence of [gamma33P]ATP by scintillation counting method relative to control
[11] = target: Cyclin-dependent kinase-like 4 (Homo sapiens) (UniProt Q5MAI5); assay: Inhibition of human CDKL4 at 10 uM by radiometric method relative to control
[12] = target: CDK4/Cyclin D3 (Homo sapiens) (UniProt P11802+P30281); assay: Inhibition of recombinant full-length human CDK4/cyclinD3 at 10 uM using Rb fragment as substrate measured after 40 mins in presence of [gamma33P]ATP by scintillation counting method relative to control; format: protein-complex assay
[13] = target: Calcium/calmodulin-dependent protein kinase type IV (Homo sapiens) (UniProt Q16566); assay: Inhibition of full-length recombinant human Camk4 at 10 uM using calmodulin as substrate after 40 mins by in presence of [gamma33P]ATP by scintillation counting method relative to control
[14] = target: MAP kinase-interacting serine/threonine-protein kinase 2 (Homo sapiens) (UniProt Q9HBH9); assay: Inhibition of recombinant full-length human MNK2 at 10 uM using myelin basic protein as substrate measured after 40 mins in presence of [gamma33P]ATP by scintillation counting analysis relative to control
[15] = target: Dual specificity mitogen-activated protein kinase kinase 1 (Homo sapiens) (UniProt Q02750); assay: Inhibition of recombinant full-length human MEK1 at 10 uM using unactive MAPK2 as substrate measured after 40 mins in presence of [gamma33P]ATP by scintillation counting method relative to control
Homo sapiens = organism: Homo sapiens; assay: Inhibition of recombinant human MAPKAPK2 A399G mutant (46 to end residues) at 10 uM using KKLNRTLSVA as substrate measured after 40 mins in presence of [gamma33P]ATP by scintillation counting method relative to control
[16] = target: Mitogen-activated protein kinase kinase kinase kinase 5 (Homo sapiens) (UniProt Q9Y4K4); assay: Inhibition of recombinant full-length human MAP4K5 at 10 uM using myelin basic protein as substrate measured after 40 mins in presence of [gamma33P]ATP by scintillation counting method relative to control
[17] = target: Serine/threonine-protein kinase MAK (Homo sapiens) (UniProt P20794); assay: Inhibition of recombinant full-length human MAK at 10 uM using RRRFRPASPLRGPPK as substrate measured after 120 mins in presence of [gamma33P]ATP by scintillation counting method relative to control
[18] = target: Leucine-rich repeat serine/threonine-protein kinase 2 (Homo sapiens) (UniProt Q5S007); assay: Inhibition of recombinant human LRRK2 (970 to end residues) at 10 uM using RLGRDKYKTLRQIRQ as substrate measured after 40 mins in presence of [gamma33P]ATP by scintillation counting method relative to control
[19] = target: Serine/threonine-protein kinase B-raf (Homo sapiens) (UniProt P15056); assay: Inhibition of recombinant human BRAF (416 to end residues) at 10 uM using myelin basic protein as substrate after 40 mins in presence of [gamma33P]ATP by scintillation counting method relative to control
[20] = target: 5'-AMP-activated protein kinase catalytic subunit alpha-2 (Homo sapiens) (UniProt P54646); assay: Inhibition of recombinant full length human AMPKalpha2 at 10 uM using AMARAASAAALARRR as substrate after 40 mins in presence of [gamma33P]ATP by scintillation counting method relative to control
[21] = target: Activated CDC42 kinase 1 (Homo sapiens) (UniProt Q07912); assay: Inhibition of human ACK1 (1 to 389 residues) at 10 uM using EFPIYDFLPAKKK as substrate after 40 mins in presence of [gamma33P]ATP by scintillation counting method relative to control
[22] = target: Protein arginine N-methyltransferase 1 (Homo sapiens) (UniProt Q99873); assay: Inhibition of human PRMT1 at 10 uM after 1 hr by radioisotope-based assay relative to control
[23] = target: Histone acetyltransferase p300 (Homo sapiens) (UniProt Q09472); assay: Displacement of [3H]-acetyl-CoA from human P300 after 60 mins by microbeta counting method
[24] = target: Serine-protein kinase ATM (Homo sapiens) (UniProt Q13315); assay: Inhibition of recombinant full-length human ATM at 10 uM using GST-cMyc-p53 as substrate measured after 40 mins by EIA method relative to control

Sequence of Dual specificity mitogen-activated protein kinase kinase 1 (Homo sapiens) (Q02750 whole entry): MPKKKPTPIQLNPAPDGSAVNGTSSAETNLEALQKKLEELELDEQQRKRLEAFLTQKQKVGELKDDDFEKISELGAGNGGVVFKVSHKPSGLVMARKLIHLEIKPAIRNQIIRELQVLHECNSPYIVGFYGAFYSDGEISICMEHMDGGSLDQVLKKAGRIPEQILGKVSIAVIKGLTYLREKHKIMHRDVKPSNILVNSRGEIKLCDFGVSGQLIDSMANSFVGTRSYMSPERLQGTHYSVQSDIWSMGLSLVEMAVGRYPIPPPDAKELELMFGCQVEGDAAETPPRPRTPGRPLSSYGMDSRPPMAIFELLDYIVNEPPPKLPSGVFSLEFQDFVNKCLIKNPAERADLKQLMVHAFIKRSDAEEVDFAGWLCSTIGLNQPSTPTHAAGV
Sequence of Transcription initiation factor TFIID subunit 1-like (Homo sapiens) (Q8IZX4 whole entry): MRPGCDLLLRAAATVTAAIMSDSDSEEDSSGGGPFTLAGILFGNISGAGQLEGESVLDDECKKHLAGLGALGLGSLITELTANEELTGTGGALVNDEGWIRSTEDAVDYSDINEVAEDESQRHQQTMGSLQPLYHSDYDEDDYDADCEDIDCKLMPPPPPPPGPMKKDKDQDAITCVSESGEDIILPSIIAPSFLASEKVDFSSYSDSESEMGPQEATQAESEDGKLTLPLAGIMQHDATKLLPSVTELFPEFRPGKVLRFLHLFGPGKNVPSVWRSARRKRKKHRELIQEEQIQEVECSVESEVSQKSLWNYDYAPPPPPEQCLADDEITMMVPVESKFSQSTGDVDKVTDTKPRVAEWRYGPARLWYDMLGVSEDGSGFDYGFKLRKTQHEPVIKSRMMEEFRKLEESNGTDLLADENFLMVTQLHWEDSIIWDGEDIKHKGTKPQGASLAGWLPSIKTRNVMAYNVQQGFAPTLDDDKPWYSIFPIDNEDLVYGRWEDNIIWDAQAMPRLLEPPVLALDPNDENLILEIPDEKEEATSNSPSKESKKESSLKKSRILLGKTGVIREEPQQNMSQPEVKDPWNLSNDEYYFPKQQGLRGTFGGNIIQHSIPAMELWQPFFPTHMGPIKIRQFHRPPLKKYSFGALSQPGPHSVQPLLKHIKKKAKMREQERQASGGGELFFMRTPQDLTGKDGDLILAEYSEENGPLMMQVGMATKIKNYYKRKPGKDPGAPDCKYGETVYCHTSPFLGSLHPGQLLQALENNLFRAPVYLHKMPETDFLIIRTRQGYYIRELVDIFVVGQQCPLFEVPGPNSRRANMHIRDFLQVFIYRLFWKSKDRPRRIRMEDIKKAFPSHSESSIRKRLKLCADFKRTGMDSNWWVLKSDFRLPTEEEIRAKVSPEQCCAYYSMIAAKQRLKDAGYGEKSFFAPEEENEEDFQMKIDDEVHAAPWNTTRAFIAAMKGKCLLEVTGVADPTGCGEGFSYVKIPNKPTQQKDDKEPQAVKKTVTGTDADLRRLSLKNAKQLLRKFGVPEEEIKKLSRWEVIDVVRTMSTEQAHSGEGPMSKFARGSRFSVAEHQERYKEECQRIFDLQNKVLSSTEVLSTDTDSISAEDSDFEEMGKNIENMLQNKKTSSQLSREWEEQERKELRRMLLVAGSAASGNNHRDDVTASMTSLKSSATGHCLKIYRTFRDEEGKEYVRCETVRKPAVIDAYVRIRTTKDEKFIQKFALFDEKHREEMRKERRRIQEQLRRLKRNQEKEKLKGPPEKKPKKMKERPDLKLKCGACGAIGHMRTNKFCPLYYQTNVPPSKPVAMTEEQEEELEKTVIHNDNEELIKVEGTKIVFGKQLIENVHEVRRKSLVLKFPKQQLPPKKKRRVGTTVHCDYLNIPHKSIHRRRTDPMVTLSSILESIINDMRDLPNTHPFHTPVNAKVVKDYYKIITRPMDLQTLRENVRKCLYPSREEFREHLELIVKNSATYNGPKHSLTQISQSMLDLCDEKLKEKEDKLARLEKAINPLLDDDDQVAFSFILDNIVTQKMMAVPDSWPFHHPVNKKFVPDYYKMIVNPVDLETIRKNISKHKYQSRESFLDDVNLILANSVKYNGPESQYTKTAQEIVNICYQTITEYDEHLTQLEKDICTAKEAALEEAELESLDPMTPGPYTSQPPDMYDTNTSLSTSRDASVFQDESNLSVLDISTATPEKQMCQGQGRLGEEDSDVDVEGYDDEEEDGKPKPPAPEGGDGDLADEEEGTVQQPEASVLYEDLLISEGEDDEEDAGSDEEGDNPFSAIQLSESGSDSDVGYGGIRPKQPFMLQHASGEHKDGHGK
Sequence of Serine/threonine-protein kinase MAK (Homo sapiens) (P20794 whole entry): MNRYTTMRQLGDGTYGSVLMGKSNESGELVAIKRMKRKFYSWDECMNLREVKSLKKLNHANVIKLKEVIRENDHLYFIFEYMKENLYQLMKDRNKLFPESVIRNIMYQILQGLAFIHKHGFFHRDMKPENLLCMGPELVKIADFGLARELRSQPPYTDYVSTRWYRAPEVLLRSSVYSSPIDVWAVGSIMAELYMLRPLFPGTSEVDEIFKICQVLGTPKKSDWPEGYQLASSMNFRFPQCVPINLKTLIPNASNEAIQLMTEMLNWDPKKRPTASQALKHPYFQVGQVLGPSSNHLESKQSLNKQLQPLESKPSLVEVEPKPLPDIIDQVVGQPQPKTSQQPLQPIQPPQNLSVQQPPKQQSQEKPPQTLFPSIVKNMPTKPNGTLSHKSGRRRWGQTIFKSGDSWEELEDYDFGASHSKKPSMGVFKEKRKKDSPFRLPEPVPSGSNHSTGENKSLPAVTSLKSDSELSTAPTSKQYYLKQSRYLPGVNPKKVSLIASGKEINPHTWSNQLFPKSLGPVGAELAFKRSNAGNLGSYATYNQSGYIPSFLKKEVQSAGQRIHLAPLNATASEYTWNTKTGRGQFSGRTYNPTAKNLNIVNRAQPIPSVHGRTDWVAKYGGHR
Sequence of Protein kinase C iota type (Homo sapiens) (P41743 whole entry): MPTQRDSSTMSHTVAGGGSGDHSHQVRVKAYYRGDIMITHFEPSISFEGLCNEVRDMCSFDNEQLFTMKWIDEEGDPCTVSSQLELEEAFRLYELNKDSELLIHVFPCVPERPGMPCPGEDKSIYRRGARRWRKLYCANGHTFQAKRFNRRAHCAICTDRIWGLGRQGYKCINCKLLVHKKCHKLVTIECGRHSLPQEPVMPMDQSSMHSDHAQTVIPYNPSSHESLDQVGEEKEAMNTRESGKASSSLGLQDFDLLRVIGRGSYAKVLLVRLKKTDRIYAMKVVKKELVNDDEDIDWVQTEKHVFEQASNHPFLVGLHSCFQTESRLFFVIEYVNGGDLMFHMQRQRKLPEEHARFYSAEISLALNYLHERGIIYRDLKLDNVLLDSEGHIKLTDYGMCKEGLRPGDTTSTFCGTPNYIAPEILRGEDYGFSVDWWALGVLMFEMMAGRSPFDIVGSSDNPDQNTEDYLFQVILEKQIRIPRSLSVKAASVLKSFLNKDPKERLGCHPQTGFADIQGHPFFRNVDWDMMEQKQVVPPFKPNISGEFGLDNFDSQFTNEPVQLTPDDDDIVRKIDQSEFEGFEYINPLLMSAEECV
Sequence of Cyclin-dependent kinase-like 4 (Homo sapiens) (Q5MAI5 whole entry, the tested form may be a part): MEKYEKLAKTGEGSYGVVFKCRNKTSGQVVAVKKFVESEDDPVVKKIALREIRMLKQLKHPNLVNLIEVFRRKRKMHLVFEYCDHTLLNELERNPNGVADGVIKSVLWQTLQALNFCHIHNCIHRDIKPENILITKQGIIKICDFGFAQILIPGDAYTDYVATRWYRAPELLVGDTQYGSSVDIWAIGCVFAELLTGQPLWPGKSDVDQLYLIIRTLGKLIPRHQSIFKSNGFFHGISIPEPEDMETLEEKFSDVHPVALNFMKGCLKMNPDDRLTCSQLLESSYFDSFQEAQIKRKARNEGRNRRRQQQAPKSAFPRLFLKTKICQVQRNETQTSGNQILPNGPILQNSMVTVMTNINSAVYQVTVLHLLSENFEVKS
Sequence of 5'-AMP-activated protein kinase catalytic subunit alpha-2 (Homo sapiens) (P54646 whole entry, looked up, the tested form may be a part): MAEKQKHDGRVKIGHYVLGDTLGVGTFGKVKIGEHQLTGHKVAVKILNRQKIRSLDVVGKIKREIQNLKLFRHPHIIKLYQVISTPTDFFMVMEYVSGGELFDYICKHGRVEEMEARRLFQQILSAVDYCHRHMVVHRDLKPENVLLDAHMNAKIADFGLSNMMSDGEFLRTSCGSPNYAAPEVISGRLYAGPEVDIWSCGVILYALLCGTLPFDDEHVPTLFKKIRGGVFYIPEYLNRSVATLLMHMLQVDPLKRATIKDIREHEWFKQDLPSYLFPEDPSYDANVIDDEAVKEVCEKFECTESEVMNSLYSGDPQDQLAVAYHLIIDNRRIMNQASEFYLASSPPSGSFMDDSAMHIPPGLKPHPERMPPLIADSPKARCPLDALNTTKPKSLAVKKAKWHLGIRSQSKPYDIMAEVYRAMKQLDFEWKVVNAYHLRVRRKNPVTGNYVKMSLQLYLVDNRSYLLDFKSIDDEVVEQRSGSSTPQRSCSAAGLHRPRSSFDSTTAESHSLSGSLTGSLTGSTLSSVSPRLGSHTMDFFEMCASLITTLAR
Sequence of Serine/threonine-protein kinase pim-2 (Homo sapiens) (Q9P1W9 whole entry, looked up): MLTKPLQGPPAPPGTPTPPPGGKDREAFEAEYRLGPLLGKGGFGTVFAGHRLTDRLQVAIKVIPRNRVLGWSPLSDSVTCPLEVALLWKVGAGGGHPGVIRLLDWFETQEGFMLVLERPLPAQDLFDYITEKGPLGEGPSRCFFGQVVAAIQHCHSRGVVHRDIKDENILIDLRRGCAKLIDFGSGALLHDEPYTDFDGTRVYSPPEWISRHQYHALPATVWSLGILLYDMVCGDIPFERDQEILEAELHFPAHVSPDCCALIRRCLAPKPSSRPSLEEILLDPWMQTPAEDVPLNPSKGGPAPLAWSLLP
Sequence of Protein arginine N-methyltransferase 1 (Homo sapiens) (Q99873 whole entry, looked up): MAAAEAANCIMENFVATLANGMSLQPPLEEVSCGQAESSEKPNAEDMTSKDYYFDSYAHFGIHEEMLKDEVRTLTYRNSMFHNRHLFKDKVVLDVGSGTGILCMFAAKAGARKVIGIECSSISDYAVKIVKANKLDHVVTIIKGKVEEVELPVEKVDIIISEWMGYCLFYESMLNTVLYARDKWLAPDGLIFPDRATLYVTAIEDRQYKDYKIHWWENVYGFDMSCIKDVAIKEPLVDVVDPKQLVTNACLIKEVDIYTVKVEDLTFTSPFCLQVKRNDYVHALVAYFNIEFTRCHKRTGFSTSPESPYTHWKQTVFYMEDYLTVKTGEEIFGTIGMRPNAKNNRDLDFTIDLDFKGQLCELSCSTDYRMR

For C=CS(=O)(=O)Nc1ccc(Cc2ccc3ccccc3c2)cc1, the ΔTm [1] was 5.2 °C, the Activity [2] was “inactive” and the Activity [3] was “Active”. The inhibition [4] was -4%, the inhibition [5] was -4% and the inhibition [6] was 5%. The inhibition [7] was 7%, the inhibition [8] was 8% and the inhibition [9] was 5%. For the same molecule, the inhibition [10] was 13%, the inhibition [11] was -6% and the inhibition [12] was 11%. It also gave an inhibition [13] of 2%, an inhibition [14] of 7% and an inhibition [15] of -3%. It also gave an inhibition (Homo sapiens) of -6%, an inhibition [16] of 2% and an inhibition [17] of -3%. For the same molecule, the inhibition [18] was -10%, the inhibition [19] was -8% and the inhibition [20] was 5%. For the same molecule, the inhibition [21] was 10%, the inhibition [22] was 3% and the inhibition [23] was -3%. For the same molecule, the inhibition [24] was 2%.
